According to US10350271B2, “Lipidated peptides for lowering blood glucose” (USTAV ORGANICKE CHEMIE A BIOCHEMIE AKADEMIE VED CR, V.V.I., priority 2014, dated 2019):
Square brackets hold non-standard residues; d marks the D form. Ends that are not written are not given here. Peptide text beside a SMILES is read from it. * marks the point of attachment. Phe(3,4-Cl2) = N[C@@H](Cc1ccc(Cl)c(Cl)c1)C(=O)O; Phe(F5) = N[C@@H](Cc1c(F)c(F)c(F)c(F)c1F)C(=O)O; Myristoyl = CCCCCCCCCCCCCC(=O)*; NMeA = CN[C@@H](C)C(=O)O; Nle = CCCC[C@H](N)C(=O)O; Sar = CNCC(=O)O

Key:
[1] = biological target: T1, human PrRP receptor GPR10 (Homo sapiens, UniProt P49683); assay: Competitive binding in CHO cells transfected with human GPR10 (human 125I-PrRP31); settings: for % of PrRP31, GPR10 human receptor transfected in CHO cells: affinity relative to PrRP31
T1 construct: host or cells: CHO cells
T1 sequence (P49683 1-370): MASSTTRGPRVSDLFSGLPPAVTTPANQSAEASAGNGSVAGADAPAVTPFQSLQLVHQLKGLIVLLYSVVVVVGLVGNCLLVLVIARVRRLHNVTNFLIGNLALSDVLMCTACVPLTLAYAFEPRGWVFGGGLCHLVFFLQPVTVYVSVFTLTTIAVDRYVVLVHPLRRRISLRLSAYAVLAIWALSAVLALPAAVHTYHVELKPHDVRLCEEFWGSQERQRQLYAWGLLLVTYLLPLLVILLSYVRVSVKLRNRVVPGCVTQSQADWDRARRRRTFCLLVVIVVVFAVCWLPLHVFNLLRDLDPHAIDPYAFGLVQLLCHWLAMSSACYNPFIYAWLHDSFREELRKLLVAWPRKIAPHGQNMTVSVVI
Method: (§1) Competitive binding experiments were performed according to Motulsky and Neubig (Motulsky, A., et al., “Analyzing radioligand binding data,” Curr Protoc Neurosci, Chapter 7, Unit 7.5, 2002). Binding experiments were conducted with rat pituitary cells, and with Chinese Hamster Ovary (CHO) cells as follows:
CHO cells transfected with human PrRP receptor GPR10 (Perkin Elmer, USA) were grown on 24-well plates coated with polyethyleneimine. The cells were grown to the optimal density of 40-80 thousand cells per well. The following agents were used for the experiment: binding buffer (25 mmol·l^−1 Tris, pH 7.4; 118 mmol·l^−1 NaCl, 10 mmol·l^−1 MgCl2, 10 mmol·l^−1 CaCl2, 5.5 mmol·l^−1 glucose, 0.5 mg/ml BSA), unlabeled analogs of PrRP (i.e. the analog being tested) at a final concentration between 10^−11 to 10^−4 mol·l^−1, and radiolabeled human ^125I-PrRP31 at a final concentration of 5×10^−11 mol·l^−1.
(§2) Plates were incubated for 60 minutes at room temperature. After incubation, the cells were solubilized in 0.1 mol/l solution of NaOH, and the radioactivity bound to the cells was counted using a γ-counter. The experiments were performed in duplicate, and repeated at least three times.
(§3) Graph Pad Prism Software (San Diego, Calif., USA) was used for evaluating the competitive binding experiments. Nonlinear regression was performed using a onsite binding model.

rat PrRP receptor = biological target: T2, rat PrRP receptor (Rattus norvegicus, UniProt Q64121); assay: Competitive binding in RC-4B/C rat pituitary cells (125I-rat PrRP31); settings: for % of PrRP31, RC-4B/C rat pituitary cells: affinity relative to PrRP31
T2 construct: host or cells: RC-4B/C rat pituitary cell line
T2 sequence (Q64121 1-370): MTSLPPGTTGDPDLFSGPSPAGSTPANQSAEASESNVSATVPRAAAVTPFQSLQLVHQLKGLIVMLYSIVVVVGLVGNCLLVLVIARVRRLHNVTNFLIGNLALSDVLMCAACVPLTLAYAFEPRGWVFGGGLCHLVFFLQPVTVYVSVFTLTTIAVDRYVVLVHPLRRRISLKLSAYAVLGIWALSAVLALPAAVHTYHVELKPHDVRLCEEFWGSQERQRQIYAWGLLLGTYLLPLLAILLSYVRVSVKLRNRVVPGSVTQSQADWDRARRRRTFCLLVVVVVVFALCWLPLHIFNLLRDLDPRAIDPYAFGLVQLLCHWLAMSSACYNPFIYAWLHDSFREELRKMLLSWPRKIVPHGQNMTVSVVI
Method: as §1
The rat pituitary cell line RC-4B/C (ATCC, Manassas, USA) was grown on 24-well plates which had their bottom coated with polyethyleneimine. The cells were grown to the optimal density of 300-450 thousand cells per well. The following agents were used for the experiment: binding buffer (20 mmol·l^−1 HEPES, Ph 7.4; 118 mmol·l^−1 NaCl, 4.7 mmol·l^−1 KCl, 5 mmol·l^−1 MgCl2, 5.5 mmol·l^−1 glucose, 1 mg/ml BSA, 0.1 BPTI), unlabeled analogs of PrRP (i.e. the analog being tested) at a final concentration between 10^−11 to 10^−4 mol·l^−1, and rat ^125I-PrRP31 (labeled with radioactive Iodine-125) at a final concentration of […] (Maixnerová et al., 2011).
as §2, §3

| Molecule | % of PrRP31, GPR10 human receptor transfected in CHO cells [1] | % of PrRP31, RC-4B/C rat pituitary cells (rat PrRP receptor) | Ki ([1]; CHO cells, human 125I-PrRP31, read-out: Ki, GPR10 human receptor transfected in CHO cells) | Ki (rat PrRP receptor; RC-4B/C cells, displacement of 125I-rat PrRP31, read-out: Ki, RC-4B/C rat pituitary cells ^25I-rat PrRP31) |
| --- | --- | --- | --- | --- |
| CC[C@H](C)[C@H](NC(=O)CN(C)C(=O)[C@H](CCCNC(=N)N)NC(=O)CNC(=O)[C@@H](NC(=O)[C@H](Cc1ccc(O)cc1)NC(=O)[C@H](Cc1c[nH]c2ccccc12)NC(=O)[C@H](C)NC(=O)[C@@H]1CCCN1C(=O)[C@H](CC(N)=O)NC(=O)[C@@H](NC(=O)[C@H](CC(=O)O)NC(=O)[C@@H]1CCCN1C(=O)[C@@H](N)[C@@H](C)O)[C@@H](C)CC)[C@@H](C)O)C(=O)N[C@@H](CCCNC(=N)N)C(=O)N1CCC[C@H]1C(=O)N[C@H](C(=O)NCC(=O)N[C@@H](CCCNC(=N)N)C(=O)N[C@@H](Cc1ccccc1)C(N)=O)C(C)C [Analog 27] (H-TPDINPAWYTGR[Sar]IRPVGRF-NH2) | 86% | 62% | – | – |
| CCCC[C@H](NC(=O)[C@H](CO)NC(=O)[C@H](Cc1c[nH]cn1)NC(=O)[C@H](CCC(N)=O)NC(=O)[C@H](Cc1c[nH]cn1)NC(=O)[C@H](C)NC(=O)[C@H](CCCNC(=N)N)NC(=O)[C@@H](N)CO)C(=O)N[C@@H](CCC(=O)O)C(=O)N[C@H](C(=O)N[C@@H](CCCNC(=N)N)C(=O)N[C@H](C(=O)N1CCC[C@H]1C(=O)N[C@@H](CC(=O)O)C(=O)N[C@H](C(=O)N[C@@H](CC(N)=O)C(=O)N1CCC[C@H]1C(=O)N[C@@H](C)C(=O)N[C@@H](Cc1c[nH]c2ccccc12)C(=O)N[C@@H](Cc1ccc(O)cc1)C(=O)N[C@H](C(=O)NCC(=O)N[C@@H](CCCNC(=N)N)C(=O)NCC(=O)N[C@H](C(=O)N[C@@H](CCCNC(=N)N)C(=O)N1CCC[C@H]1C(=O)N[C@H](C(=O)NCC(=O)N[C@@H](CCCNC(=N)N)C(=O)N[C@@H](Cc1c(F)c(F)c(F)c(F)c1F)C(N)=O)C(C)C)[C@@H](C)CC)[C@@H](C)O)[C@@H](C)CC)[C@@H](C)O)[C@@H](C)O [Analog 21] (H-SRAHQHS[Nle]ETRTPDINPAWYTGRGIRPVGR[Phe(F5)]-NH2) | 45% | 51% | – | – |
| CCCCCCCCCCCCCC(=O)N[C@H](C(=O)N1CCC[C@H]1C(=O)N[C@@H](CC(=O)O)C(=O)N[C@H](C(=O)N[C@@H](CC(N)=O)C(=O)N1CCC[C@H]1C(=O)N[C@@H](C)C(=O)N[C@@H](Cc1c[nH]c2ccccc12)C(=O)N[C@@H](Cc1ccc(O)cc1)C(=O)N(C)[C@@H](C)C(=O)N[C@@H](CO)C(=O)N[C@@H](CCCNC(=N)N)C(=O)NCC(=O)N[C@H](C(=O)N[C@@H](CCCNC(=N)N)C(=O)N1CCC[C@H]1C(=O)N[C@H](C(=O)NCC(=O)N[C@@H](CCCNC(=N)N)C(=O)N[C@@H](Cc1ccccc1)C(N)=O)C(C)C)[C@@H](C)CC)[C@@H](C)CC)[C@@H](C)O [Analog 30] (Myristoyl-TPDINPAWY[NMeA]SRGIRPVGRF-NH2) | 185% | 1072% | – | – |
| CCCCCCCCCCCCCC(=O)N[C@H](C(=O)N1CCC[C@H]1C(=O)N[C@@H](CC(=O)O)C(=O)N[C@H](C(=O)N[C@@H](CC(N)=O)C(=O)N1CCC[C@H]1C(=O)N[C@@H](C)C(=O)N[C@@H](Cc1c[nH]c2ccccc12)C(=O)N[C@@H](Cc1ccc(O)cc1)C(=O)N[C@H](C(=O)NCC(=O)N[C@@H](CCCNC(=N)N)C(=O)N(C)CC(=O)N[C@H](C(=O)N[C@@H](CCCNC(=N)N)C(=O)N1CCC[C@H]1C(=O)N[C@H](C(=O)NCC(=O)N[C@@H](CCCNC(=N)N)C(=O)N[C@@H](Cc1ccccc1)C(N)=O)C(C)C)[C@@H](C)CC)[C@@H](C)O)[C@@H](C)CC)[C@@H](C)O [Analog 28] (Myristoyl-TPDINPAWYTGR[Sar]IRPVGRF-NH2) | 125% | 1541% | – | – |
| TPDINPAWYASRPFRPVGRF-NH2 [Analog 33] | 225% | 230% | – | – |
| CCCC[C@H](NC(=O)[C@H](CO)NC(=O)[C@H](Cc1c[nH]cn1)NC(=O)[C@H](CCC(N)=O)NC(=O)[C@H](Cc1c[nH]cn1)NC(=O)[C@H](C)NC(=O)[C@H](CCCNC(=N)N)NC(=O)[C@@H](N)CO)C(=O)N[C@@H](CCC(=O)O)C(=O)N[C@H](C(=O)N[C@@H](CCCNC(=N)N)C(=O)N[C@H](C(=O)N1CCC[C@H]1C(=O)N[C@@H](CC(=O)O)C(=O)N[C@H](C(=O)N[C@@H](CC(N)=O)C(=O)N1CCC[C@H]1C(=O)N[C@@H](C)C(=O)N[C@@H](Cc1c[nH]c2ccccc12)C(=O)N[C@@H](Cc1ccc(O)cc1)C(=O)N[C@H](C(=O)NCC(=O)N[C@@H](CCCNC(=N)N)C(=O)NCC(=O)N[C@H](C(=O)N[C@@H](CCCNC(=N)N)C(=O)N1CCC[C@H]1C(=O)N[C@H](C(=O)NCC(=O)N[C@@H](CCCNC(=N)N)C(=O)N[C@@H](Cc1ccc(Cl)c(Cl)c1)C(N)=O)C(C)C)[C@@H](C)CC)[C@@H](C)O)[C@@H](C)CC)[C@@H](C)O)[C@@H](C)O [Analog 13] (H-SRAHQHS[Nle]ETRTPDINPAWYTGRGIRPVGR[Phe(3,4-Cl2)]-NH2; N-terminus assumed) | 171% | 128% | 2.27 ± 0.48 nM | 3.84 ± 0.93 nM |
| QHSMETRTPDINPAWYTGRGIRPVGRF-NH2 [Analog 37] | 66% | 189% | – | – |
| TPDINPAWYTGRGARPFGRF-NH2 [Analog 31] | 0.7% | 0.8% | – | – |
| CCCCCCCCCCCCCC(=O)N[C@@H](CCCC)C(=O)N[C@@H](CCC(=O)O)C(=O)N[C@H](C(=O)N[C@@H](CCCNC(=N)N)C(=O)N[C@H](C(=O)N1CCC[C@H]1C(=O)N[C@@H](CC(=O)O)C(=O)N[C@H](C(=O)N[C@@H](CC(N)=O)C(=O)N1CCC[C@H]1C(=O)N[C@@H](C)C(=O)N[C@@H](Cc1c[nH]c2ccccc12)C(=O)N[C@@H](Cc1ccc(O)cc1)C(=O)N[C@H](C(=O)NCC(=O)N[C@@H](CCCNC(=N)N)C(=O)NCC(=O)N[C@H](C(=O)N[C@@H](CCCNC(=N)N)C(=O)N1CCC[C@H]1C(=O)N[C@H](C(=O)NCC(=O)N[C@@H](CCCNC(=N)N)C(=O)N[C@@H](Cc1ccccc1)C(N)=O)C(C)C)[C@@H](C)CC)[C@@H](C)O)[C@@H](C)CC)[C@@H](C)O)[C@@H](C)O [Analog 36] (Myristoyl-[Nle]ETRTPDINPAWYTGRGIRPVGRF-NH2) | 71% | 1096% | – | – |
